According to patent US5304470A, “Process for the enzymatic preparation of protected and unprotected di- and oligopeptides in aqueous solutions” (Forschungszentrum Juelich GmbH, priority 1991, dated 1994):

Excerpt: (§1) The ethyl ester of tyrosine was reacted.
as §1, §1

solubility in water	Compound
> 700 mM	CCOC(=O)[C@H](Cc1c[nH]c2ccccc12)NC(=O)/C=C\C(=O)O [Mal-Trp-OEt]
> 1000 mM	CCOC(=O)C(CCCNC(=N)N)NC(=O)C=CC(=O)O (stereo not drawn) [Mal-Arg-OEt]
> 600 mM	CCOC(=O)[C@H](Cc1ccc(O)cc1)NC(=O)/C=C\C(=O)O [Mal-Tyr-OEt]
> 700 mM	CCOC(=O)C(Cc1ccccc1)NC(=O)C=CC(=O)O (stereo not drawn) [Mal-Phe-OEt]
